Among the test systems are SK-MEL-5 melanoma; LOX IMVI melanoma; TK-10 renal; PC-3 prostate; CAKI-1 renal; SW-620 colon; IGROV1 ovarian; HCC-2998 colon; NCI-H23 lung; HOP-92 NSCLC.
Common to all, as to test: NCI anticancer screen, dose series, 48 h

“And” between values parts separate entries of the source, which are not always exact repeats. Equal values may be shown once.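 Values below derive from 48-hour exposures of cells grown in 96-well plates, with endpoints linearly interpolated between the two concentrations bracketing the appropriate inhibition level. GI50 is the concentration that inhibits growth by half. TGI denotes the concentration required for complete inhibition of growth.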

Take `CC(=O)Nc1cccc(-n2c(=O)n(C3CC3)c(=O)c3c(Nc4ccc(I)cc4F)n(C)c(=O)c(C)c32)c1`: the TGI is 15.9 µM and > 10 µM in the assay on SK-MEL-5 melanoma; 5.46 µM and > 10 µM in the assay on LOX IMVI melanoma; 20.7 µM and > 10 µM with TK-10 renal; 46.3 µM and > 10 µM in the assay on PC-3 prostate; over 46.5 µM with CAKI-1 renal; over 48.8 µM with SW-620 colon. Moreover, the TGI in the assay on IGROV1 ovarian is over 81.6 µM; in the assay on HCC-2998 colon, 15.7 µM and > 10 µM; with NCI-H23 lung, 19.3 µM and > 10 µM. Moreover, the GI50 is < 0.0122 µM and 0.0262 µM with LOX IMVI melanoma; < 0.0144 µM and 0.00977 µM in the assay on TK-10 renal; 6.33 µM and > 10 µM in the assay with PC-3 prostate; 0.203 µM in the assay with CAKI-1 renal; < 0.01 µM and 0.00622 µM with SW-620 colon; 0.034 µM and 0.0221 µM with IGROV1 ovarian. Further, the GI50 with HCC-2998 colon was < 0.01 µM and 0.0024 µM; in the assay with NCI-H23 lung, < 0.01 µM and 0.0212 µM; in the assay with HOP-92 NSCLC, < 0.01 µM and 0.011 µM.
Turning to `O=C(NNc1nc2c(F)cccc2n2cccc12)c1cnccn1`, the GI50 in the assay with SK-MEL-5 melanoma was 0.864 µM; in the assay on LOX IMVI melanoma, 0.3 µM; in the assay with TK-10 renal, 5.05 µM; with PC-3 prostate it was 0.393 µM; in the assay on CAKI-1 renal, 0.628 µM; in the assay with SW-620 colon, 0.435 µM. Moreover, the GI50 with IGROV1 ovarian is 0.328 µM; in the assay on HCC-2998 colon it was 0.867 µM; with NCI-H23 lung, 0.905 µM; with HOP-92 NSCLC, 0.556 µM. Further, the TGI is 4.56 µM with SK-MEL-5 melanoma; 5.83 µM in the assay on LOX IMVI melanoma; 60.9 µM in the assay on TK-10 renal; 39.5 µM with PC-3 prostate; 16.4 µM with CAKI-1 renal; 38.5 µM with SW-620 colon. For the same molecule, the TGI was 29.1 µM in the assay on IGROV1 ovarian, 28.6 µM with HCC-2998 colon, over 69.8 µM in the assay on NCI-H23 lung and 45.1 µM in the assay with HOP-92 NSCLC.
`O=C(CSc1nc2ccc([N+](=O)[O-])cc2[nH]1)Nc1ccc(F)c(Cl)c1`: the GI50 was 1.22 µM with SK-MEL-5 melanoma; 2.89 µM in the assay on LOX IMVI melanoma; 4.08 µM with TK-10 renal; 2.57 µM in the assay with PC-3 prostate; 1.95 µM with CAKI-1 renal; 3.26 µM in the assay on SW-620 colon. Also, the GI50 in the assay with IGROV1 ovarian is 2.65 µM; in the assay on HCC-2998 colon, 2.95 µM; in the assay on NCI-H23 lung, 2.05 µM; in the assay with HOP-92 NSCLC, 0.346 µM. The TGI with SK-MEL-5 melanoma was 3.03 µM; with LOX IMVI melanoma, 14 µM; in the assay with TK-10 renal, 15.9 µM; in the assay on PC-3 prostate it was 11.6 µM; in the assay with CAKI-1 renal, 7.33 µM; in the assay on SW-620 colon it was 15.7 µM. The TGI with IGROV1 ovarian came out at 14.6 µM; in the assay on HCC-2998 colon, 11.8 µM; in the assay on NCI-H23 lung, 8.79 µM; with HOP-92 NSCLC it was 2.72 µM.
As to `CCc1c2c(nc3cc4c(cc13)OCO4)-c1cc3c(c(=O)n1C2)COC(=O)[C@]3(O)CC`, the TGI in the assay on SK-MEL-5 melanoma was 0.0648 µM and 0.143 µM; in the assay with LOX IMVI melanoma, 0.122 µM and 0.52 µM; with PC-3 prostate, over 100 µM; in the assay on SW-620 colon, over 100 µM; in the assay on IGROV1 ovarian, over 100 µM; in the assay with HCC-2998 colon, over 100 µM. Further, the TGI in the assay on NCI-H23 lung is 1.08 µM; in the assay on HOP-92 NSCLC, over 100 µM. Moreover, the GI50 is 0.00197 µM in the assay with LOX IMVI melanoma; 0.294 µM and 1.91 µM in the assay with TK-10 renal; 0.277 µM and 0.122 µM in the assay on PC-3 prostate; under 0.001 µM in the assay on CAKI-1 renal; 0.33 µM and 0.39 µM with IGROV1 ovarian; 0.0443 µM and 0.361 µM in the assay on HCC-2998 colon. The results for the GI50 in the assay on NCI-H23 lung and in the assay with HOP-92 NSCLC were 0.00263 µM and 0.019 µM, respectively.
As for `C[C@@H]1CC[C@@H]2[C@@H]1[C@H](OC(=O)/C=C/c1ccccc1)[C@]1(c3ccccc3)C[C@@H](OC(=O)CO)[C@@]2(C)O1`, the GI50 with SK-MEL-5 melanoma is 13.4 µM; in the assay with LOX IMVI melanoma it was 13.9 µM; with TK-10 renal, 18.2 µM; in the assay on PC-3 prostate it was 3.67 µM; in the assay on CAKI-1 renal it was 0.504 µM; in the assay on SW-620 colon, 19.1 µM. Further, the GI50 is 17 µM in the assay on IGROV1 ovarian, 14.6 µM in the assay on HCC-2998 colon, 15 µM in the assay with NCI-H23 lung and 6.52 µM in the assay on HOP-92 NSCLC. The TGI was 26.2 µM in the assay on SK-MEL-5 melanoma; 27.2 µM with LOX IMVI melanoma; 41.8 µM in the assay on TK-10 renal; 18.9 µM with PC-3 prostate; 18.4 µM in the assay with CAKI-1 renal; 42.6 µM in the assay with SW-620 colon. Further, the TGI was 44.5 µM in the assay on IGROV1 ovarian, 29 µM in the assay with HCC-2998 colon, 35.9 µM in the assay with NCI-H23 lung and 20.1 µM with HOP-92 NSCLC.
For `O=C(CCN1CCN(c2cnc3ccccc3n2)CC1)c1csc2ccccc12`, the GI50 in the assay with SK-MEL-5 melanoma was 60.3 µM; with LOX IMVI melanoma it was 26 µM; with TK-10 renal, 19.5 µM; with PC-3 prostate, 28.1 µM; with CAKI-1 renal, 18.9 µM; in the assay with SW-620 colon it was 20.9 µM. Moreover, the GI50 in the assay with HCC-2998 colon is over 100 µM; in the assay with NCI-H23 lung, over 100 µM; in the assay on HOP-92 NSCLC, 18.9 µM. The TGI with SK-MEL-5 melanoma was over 100 µM; with LOX IMVI melanoma, 70.1 µM; in the assay on TK-10 renal, 42.6 µM; in the assay on PC-3 prostate it was over 100 µM; with CAKI-1 renal it was 35.8 µM; in the assay on SW-620 colon it was 45.4 µM. In addition, the TGI is over 100 µM in the assay on HCC-2998 colon, over 100 µM in the assay on NCI-H23 lung and 49.1 µM in the assay on HOP-92 NSCLC.
On to `O=C1/C(=C/c2ccc(F)cc2)CCOc2ccc([N+](=O)[O-])cc21`, for which the GI50 was 1.84 µM with SK-MEL-5 melanoma; 35.9 µM in the assay on LOX IMVI melanoma; 3.88 µM with TK-10 renal; 0.306 µM with PC-3 prostate; 2.08 µM in the assay with CAKI-1 renal; 1.35 µM in the assay on SW-620 colon. Also, the GI50 was 3.15 µM with IGROV1 ovarian, 2.04 µM with HCC-2998 colon, 1.95 µM with NCI-H23 lung and 4.45 µM in the assay on HOP-92 NSCLC. Further, the TGI in the assay with SK-MEL-5 melanoma is 3.6 µM; in the assay with LOX IMVI melanoma, over 100 µM; with TK-10 renal, 16.1 µM; with PC-3 prostate it was 1.64 µM; in the assay with CAKI-1 renal, 4.73 µM; in the assay on SW-620 colon, 4.04 µM. The TGI with IGROV1 ovarian was 10.8 µM; in the assay on HCC-2998 colon it was 4.75 µM; in the assay with NCI-H23 lung, 4.51 µM; in the assay with HOP-92 NSCLC, 40.2 µM.
On to `O=C(c1cccs1)c1c(C(F)(F)F)n([O-])c2ccccc2[n+]1=O`, for which the GI50 was 0.686 µM with SK-MEL-5 melanoma; 0.448 µM with LOX IMVI melanoma; 1.6 µM in the assay on TK-10 renal; 0.448 µM with PC-3 prostate; 1 µM with CAKI-1 renal; 1.01 µM in the assay with SW-620 colon. Also, the GI50 in the assay on IGROV1 ovarian was 0.0603 µM; in the assay on HCC-2998 colon it was 0.663 µM; in the assay with NCI-H23 lung, 0.788 µM; with HOP-92 NSCLC, 0.99 µM. The TGI with SK-MEL-5 melanoma amounted to 1.33 µM; in the assay on LOX IMVI melanoma it was 1.12 µM; in the assay on TK-10 renal, 5.43 µM; in the assay on PC-3 prostate, 2.24 µM; with CAKI-1 renal it was 2.36 µM; in the assay on SW-620 colon it was 5.94 µM. In addition, the TGI came to 2.29 µM in the assay on IGROV1 ovarian, 1.3 µM in the assay with HCC-2998 colon, 1.73 µM with NCI-H23 lung and 2.28 µM with HOP-92 NSCLC.
On to `COc1cc(C(=O)NC2c3ccccc3-c3ccccc32)c(N)cc1OCc1ccccc1`, for which the GI50 with SK-MEL-5 melanoma is 27.5 µM; in the assay on LOX IMVI melanoma, 63.6 µM; with TK-10 renal, 26.2 µM; in the assay with PC-3 prostate, 27.5 µM; in the assay with CAKI-1 renal it was 16.1 µM; in the assay with SW-620 colon, 66.4 µM. In addition, the GI50 is 34.3 µM in the assay on IGROV1 ovarian, over 100 µM with HCC-2998 colon, 30.6 µM in the assay with NCI-H23 lung and 14.2 µM with HOP-92 NSCLC. In addition, the TGI is over 100 µM in the assay on SK-MEL-5 melanoma; over 100 µM with LOX IMVI melanoma; 69.6 µM in the assay with TK-10 renal; over 66.1 µM in the assay on PC-3 prostate; 63.8 µM in the assay on CAKI-1 renal; over 100 µM with SW-620 colon. The TGI with IGROV1 ovarian was over 100 µM; in the assay on HCC-2998 colon it was over 100 µM; with NCI-H23 lung it was over 100 µM; with HOP-92 NSCLC it was 33.6 µM.
Take `NC(N)=N/N=C(/c1ccccc1)c1ccc(F)cc1`: the GI50 was 0.316 µM in the assay on SK-MEL-5 melanoma; 0.513 µM in the assay on LOX IMVI melanoma; 0.506 µM in the assay with TK-10 renal; 0.382 µM in the assay on PC-3 prostate; 0.404 µM in the assay on CAKI-1 renal; 0.376 µM in the assay with SW-620 colon. Also, the GI50 with IGROV1 ovarian is 0.528 µM; in the assay with HCC-2998 colon, 0.416 µM; with NCI-H23 lung, 0.403 µM; in the assay on HOP-92 NSCLC, 0.984 µM. The TGI was 4.66 µM with SK-MEL-5 melanoma; 10.7 µM in the assay with LOX IMVI melanoma; 18.4 µM with TK-10 renal; 18.8 µM with PC-3 prostate; 16.1 µM with CAKI-1 renal; 19.3 µM with SW-620 colon. Besides, the TGI in the assay on IGROV1 ovarian was determined as 13.5 µM; in the assay on HCC-2998 colon, 2.09 µM; with NCI-H23 lung, 8.94 µM; in the assay on HOP-92 NSCLC, 31.4 µM.
In the case of `COc1c(C2CC(=O)Nc3c2cnn3Cc2ccco2)cc2c(c1OC)OCO2` (configuration not stated), the GI50 in the assay on SK-MEL-5 melanoma is 0.395 µM; in the assay on LOX IMVI melanoma, 0.864 µM; in the assay on TK-10 renal it was 11.3 µM; in the assay with PC-3 prostate, 0.559 µM; in the assay on CAKI-1 renal it was 0.517 µM; with SW-620 colon, 0.385 µM. Further, the GI50 in the assay with IGROV1 ovarian was 1.73 µM; in the assay with HCC-2998 colon it was 1.1 µM; with NCI-H23 lung it was 0.674 µM; with HOP-92 NSCLC it was 0.424 µM. Moreover, the TGI with SK-MEL-5 melanoma was 8.38 µM; in the assay with LOX IMVI melanoma, over 100 µM; in the assay on TK-10 renal, over 100 µM; in the assay with PC-3 prostate, over 100 µM; in the assay with CAKI-1 renal, over 100 µM; with SW-620 colon, over 100 µM. The TGI in the assay with IGROV1 ovarian was over 100 µM; in the assay on HCC-2998 colon, over 28.4 µM; in the assay on NCI-H23 lung, over 100 µM; in the assay on HOP-92 NSCLC, 98 µM.

The values above are taken from PubChem BioAssay (NCI).
